# Test results: patent publication US8987313B2, “Inhibitors of cytochrome P450” (Gilead Sciences, Inc., priority 2010, dated 2015)
# Where two headings read alike, the source gives them in different places.
# Target: CYP3A4 (Homo sapiens (Human), UniProt P08684)
# Assay: CYP3A Inhibition Assay (human hepatic microsomes; midazolam 1'-hydroxylase and testosterone 6β-hydroxylase activities)
# Settings: pooled human hepatic microsomal fraction
# Protocol: Pooled (n≧15 donors) human hepatic microsomal fraction was obtained from BD-Gentest (Woburn, Mass.) who also supplied hydroxy-terfenadine, 4′-hydroxydiclofenac and NADPH regenerating system. Ritonavir was prepared from commercial Norvir® oral solution (Abbott Laboratories, Abbott Park, Ill.). Other reagents were from Sigma-Aldrich (St. Louis, Mo.) and included terfenadine, fexofenadine, BRL 15572, diclofenac and mefenamic acid.
# Incubations were performed in duplicate in 50 mM potassium phosphate buffer, pH 7.4 with NADPH regenerating system used as described by the manufacturer. […] The final substrate concentrations used were equal to the apparent Km values for the activities determined under the same conditions. Inhibitors were dissolved in DMSO, and the final concentration of DMSO, from both substrate and inhibitor vehicles, was 1% (v/v). Incubations were performed at 37° C. with shaking and were initiated by addition of substrate. Aliquots were then removed at […]. Samples were quenched by treatment with an acetonitrile, formic acid, water (94.8%/0.2%/5%, v/v/v) mixture containing internal standard. Precipitated protein was removed by centrifugation at 3000 rpm for […] and aliquots of the supernatant were then subjected to LC-MS analysis.
# The LC-MS system consisted of a Waters Acquity UPLC, with a binary solvent manager and a refrigerated (8° C.) sample organizer and sample manager, interfaced to a Micromass Quattro Premier tandem mass spectrometer operating in electrospray ionization mode. The column was a Waters Acquity UPLC BEH C18 2.1×50 mm, […]. Mobile phases consisted of mixtures of acetonitrile, formic acid and water, the composition for mobile phase A being 1%/0.2%/98.8% (v/v/v) and that for mobile phase B being 94.8%/0.2%/5% (v/v/v). The injection volumes were 5 μL and the flow rate was 0.8 mL/min. Concentrations of metabolites were determined by reference to standard curves generated with authentic analytes under the same conditions as the incubations.
# IC50 values (the concentration of inhibitor reducing CYP3A activity by 50%) were calculated by non-linear regression using GraphPad Prism 4.0 software and a sigmoidal model.
# For midazolam hydroxylase determination the final concentrations of microsomal protein and […] substrate were 0.25 mg/mL and 2.5 μM, respectively, and the LC-MS internal standard was 1α-hydroxytriazolam. […] After incubation at 37° C. for 5 minutes, metabolic reactions were terminated by treatment with quench solution containing the appropriate internal standard and were subsequently centrifuged before aliquots of the supernatant were removed and diluted with 0.1% (v/v) formic acid for LC-MS analysis.
# For LC-MS analysis the column was a Phenomenex Synergi Max RP 4 μm column (50×2.0 mm) and the injection volume was 5 μL. The MS/MS ion current metabolite/internal standard peak area ratios (PAR) were measured on an Applied Biosystems SciEx API4000 triple quadrupole mass spectrometer coupled to a Leap CTC PAL autosampler with a 20 μL loop and a Shimadzu LC pump with a 25 μL mixer.
# [1] = read-out: CYP3A4 IC50 (μM) (midazolam), midazolam 1'-hydroxylase activity
# [2] = read-out: CYP3A4 IC50 (μM) (testosterone), testosterone 6β-hydroxylase activity
# Sequence of CYP3A4 (P08684 whole entry): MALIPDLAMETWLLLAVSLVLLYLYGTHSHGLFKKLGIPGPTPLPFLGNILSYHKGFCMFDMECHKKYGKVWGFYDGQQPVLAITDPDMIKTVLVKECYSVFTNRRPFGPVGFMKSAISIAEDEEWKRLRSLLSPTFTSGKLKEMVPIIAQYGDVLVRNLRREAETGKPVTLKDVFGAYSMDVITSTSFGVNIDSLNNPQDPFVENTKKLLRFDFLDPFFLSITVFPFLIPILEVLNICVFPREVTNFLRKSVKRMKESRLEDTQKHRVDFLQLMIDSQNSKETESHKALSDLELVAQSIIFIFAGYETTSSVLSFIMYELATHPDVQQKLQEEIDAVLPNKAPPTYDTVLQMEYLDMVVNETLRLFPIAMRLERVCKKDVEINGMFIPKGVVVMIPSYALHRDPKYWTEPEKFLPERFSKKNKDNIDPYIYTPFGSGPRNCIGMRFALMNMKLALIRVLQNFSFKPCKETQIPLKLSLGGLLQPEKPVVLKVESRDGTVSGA
Structure (SMILES),IC50 [1] [µM],IC50 [2] [µM]
CC(C)c1nc(CN(C)C(=O)N2C[C@H](O)C[C@H]2C(=O)N[C@H](CC[C@H](Cc2ccccc2)NC(=O)OCc2cncs2)Cc2ccccc2)cs1 [Compound 5],0.16,0.23
CC(C)c1nc(CN(C)C(=O)N2C[C@@H](O)C[C@H]2C(=O)N[C@H](CC[C@H](Cc2ccccc2)NC(=O)OCc2cncs2)Cc2ccccc2)cs1 [Compound 8],0.17,0.24
CC(C)c1nc(CN(C)C(=O)N2C[C@H](O)C[C@H]2C(=O)N[C@@H](CC[C@@H](Cc2ccccc2)NC(=O)OCc2cncs2)Cc2ccccc2)cs1 [Compound 11],0.12,0.3
CC(C)c1nc(CN(C)C(=O)N2CS(=O)(=O)C[C@H]2C(=O)N[C@H](CC[C@H](Cc2ccccc2)NC(=O)OCc2cncs2)Cc2ccccc2)cs1 [Compound 18],0.16,0.26
CC(C)c1nc(CN(C)C(=O)NC2(C(=O)N[C@H](CC[C@H](Cc3ccccc3)NC(=O)OCc3cncs3)Cc3ccccc3)CCN(C)CC2)cs1 [Compound 21],0.19,0.34
CC(C)c1nc(CN(C)C(=O)N2CCN(C)C[C@H]2C(=O)N[C@H](CC[C@H](Cc2ccccc2)NC(=O)OCc2cncs2)Cc2ccccc2)cs1 [Compound 25],0.14,0.3
CC(C)c1nc(CN(C)C(=O)N2C[C@@H](N)C[C@H]2C(=O)N[C@H](CC[C@H](Cc2ccccc2)NC(=O)OCc2cncs2)Cc2ccccc2)cs1 [Compound 29],0.19,0.31
CN[C@H]1C[C@@H](C(=O)N[C@H](CC[C@H](Cc2ccccc2)NC(=O)OCc2cncs2)Cc2ccccc2)N(C(=O)N(C)Cc2csc(C(C)C)n2)C1 [Compound 30],0.17,0.36
CC(C)c1nc(CN(C)C(=O)N2C[C@@H](N(C)C)C[C@H]2C(=O)N[C@H](CC[C@H](Cc2ccccc2)NC(=O)OCc2cncs2)Cc2ccccc2)cs1 [Compound 31],0.15,0.33
CC(=O)N[C@H]1C[C@@H](C(=O)N[C@H](CC[C@H](Cc2ccccc2)NC(=O)OCc2cncs2)Cc2ccccc2)N(C(=O)N(C)Cc2csc(C(C)C)n2)C1 [Compound 36],< 0.1,0.37
CC(C)c1nc(CN(C)C(=O)N2CCC[C@H]2C(=O)N[C@H](CC[C@H](Cc2ccccc2)NC(=O)OCc2cncs2)Cc2ccccc2)cs1 [Compound 39],0.13,0.26
CC(C)c1nc(CN(C)C(=O)N2CCC[C@@H]2C(=O)N[C@H](CC[C@H](Cc2ccccc2)NC(=O)OCc2cncs2)Cc2ccccc2)cs1 [Compound 42],0.11,0.25
CC(C)c1nc(CN(C)C(=O)N2Cc3nc[nH]c3C[C@H]2C(=O)N[C@H](CC[C@H](Cc2ccccc2)NC(=O)OCc2cncs2)Cc2ccccc2)cs1 [Compound 49],0.19,0.37
